Test results as given in patent publication US7105675B2, “Pyridomorphinans, thienomorphinans and use thereof” (Southern Research Institute, priority 1999, dated 2006).
Read-outs that look alike come from different tables or passages of the source.

What was measured:
[1] = test system: guinea pig ileum longitudinal muscle myenteric plexus; conditions: percentage inhibition of contraction at 1 μM; data taken from Ananthan et al.; cited from earlier work
δ opioid receptor [2] = biological target: T1, δ opioid receptor (Rattus norvegicus, UniProt P33533); conditions: data taken from Ananthan et al., cited from earlier work
[3] = biological target: T2, δ opioid receptor (DPDPE) in MVD (Mus musculus, UniProt P32300); conditions: data taken from Ananthan et al.; cited from earlier work
T2 construct: Electrically-induced smooth muscle contractions of mouse vas deferens and strips of guinea pig ileum longitudinal muscle myenteric plexus were used; from tissue; host or cells: mouse vas deferens (male ICR mice)

κ1 opioid receptor [4] = biological target: T3, κ1 opioid receptor (Cavia porcellus, UniProt P41144); conditions: read-out: Ki (nM) ± SEM κ1; [3H]U69,593, guinea pig brain membranes; data taken from Ananthan et al.; cited from earlier work
T3 construct: Guinea pig brain membranes were prepared each day using partially thawed guinea pig brain; from tissue; host or cells: guinea pig brain membranes

mouse vas deferens [5] = conditions: percentage inhibition of contraction at 1 μM; data taken from Ananthan et al.; cited from earlier work
[6] = test system: μ opioid receptor (PL017) in GPI; conditions: data taken from Ananthan et al.; cited from earlier work
μ opioid receptor [7] = biological target: T4, μ opioid receptor (Rattus norvegicus, UniProt P33535); conditions: read-out: Ki (nM) ± SEM μ; [3H]DAMGO, rat brain membranes; data taken from Ananthan et al.; cited from earlier work
T4 construct: Rat membranes were prepared each day using a partially thawed frozen rat brain; from tissue; host or cells: rat brain membranes

μ opioid receptor [8] = biological target: T4, μ opioid receptor; assay: Radioligand binding, mu sites, displacement of [3H]DAMGO in rat brain membranes
Protocol: (§1) Radioligand Binding Assays. Mu binding sites were labeled using [^3H]DAMGO (1–3 nM). Rat membranes were prepared each day using a partially thawed frozen rat brain which was homogenized with a polytron in 10 mL/brain of ice cold 10 mM Tris-HCl, pH 7.0. Membranes were then centrifuged twice at 30,000 g for 10 min and resuspended with ice-cold buffer following each centrifugation. After the second centrifugation, the membranes were resuspended in 50 mM Tris-HCl, pH 7.4 (50 mL/brain) at 25° C. Incubations proceeded for 2 h at 25° C. in 50 mM Tris-HCl, pH 7.4, along with a protease inhibitor cocktail (PIC). The nonspecific binding was determined using 20 μM of levallorphan. Delta binding sites were labeled using [^3]DADLE (2 nM) and rat brain membranes. Rat membranes were prepared each day using a partially thawed frozen rat brain which was homogenized with a polytron in 10 mL/brain of ice cold 10 mM Tris-HCl, pH 7.0. Membranes were then centrifuged twice at 30,000 g for 10 min and resuspended with ice-cold buffer following each centrifugation. After the second centrifugation, the membranes were resuspended in 50 mM Tris-HCl, pH 7.4 (50 mL/brain) at 25° C. Incubations proceeded for 2 h at 25° C. in 50 mM Tris-HCl pH 7.4, containing 100 mM choline chloride, 3 mM MnCl2, and 100 nM DAMGO to block binding to μ sites, and PIC. Nonspecific binding was determined using 20 μM levallorphan. Kappa binding sites were labeled using [^3H]U69,593 (2 nM). Guinea pig brain membranes were prepared each day using partially thawed guinea pig brain which was homogenized with a polytron in 10 mL/brain of ice cold 10 mM Tris-HCl pH 7.0. The membranes were then centrifuged twice at 30,000 g for 10 min and resuspended with ice-cold buffer following each centrifugation. After the second centrifugation, the membranes were resuspended in 50 mM Tris-HCl, pH 7.4 (75 mL/brain) at 25° C. Incubations proceeded for 2 h at 25° C. in 50 mM Tris-HCl, pH 7.4, containing 1 μg/mL of captopril and PIC. Nonspecific binding was determined using 1 μM U69,593. Each ^3H ligand was displaced by 8–10 concentrations of test drug, two times. Compounds were prepared as 1 mM solution with 10 mM Tris buffer (pH 7.4) containing 10% DMSO before drug dilution. All drug dilutions were done at 10 mM Tris-HCl, pH 7.4, containing 1 mg/mL bovine serum albumin. All washes were done with ice-cold 10 mM Tris-HCl, pH 7.4. The IC50 and slope factor (N) were obtained by using the program MLAB-PC (Civilized Software, Bethesda, Md.). Ki values were calculated according to the equation Ki=IC50/(1+[L]/Kd).

κ1 opioid receptor [9] = biological target: T3, κ1 opioid receptor; assay: Radioligand binding, kappa sites, displacement of [3H]U69,593 in guinea pig brain membranes
Protocol: as §1

[10] = test system: μ opioid receptor (PL017) in GPI; assay: Antagonist activity against PL-017 in electrically stimulated guinea pig ileum (GPI); format: cell-based; conditions: for antagonist activity PL017 (μ) GPI IC50 ratio: 1 μM compound, 30 min incubation, IC50 of PL-017 with antagonist divided by control IC50; for antagonist activity PL017 (μ) GPI Ke: Ke = [antagonist]/(IC50 ratio − 1), PL-017 as agonist, n = 3
Protocol: (§2) Bioassays in GPI and MVD smooth muscle preparations. Electrically-induced smooth muscle contractions of mouse vas deferens and strips of guinea pig ileum longitudinal muscle myenteric plexus were used. Tissues came from maile ICR mice weighing 25–40 g and male Hartley guinea pigs weighing 250–500 g. The tissues were tied to gold chain with suture silk, suspended in 20 mL baths containing 37° C. oxygenated (95% O2, 5% CO2) Krebs bicarbonate solution (magnesium free for the MVD), and allowed to equilibrate for 15 min. The tissues were then stretched to optimal length previously determined to be 1 g tension (0.5 g for MVD) and allowed to equilibrate for 15 min. The tissues were stimulated transmurally between platinum wire electrodes at 0.1 Hz, 0.4 ms pulses (2-ms pulses for MVD), and supramaximal voltage. An initial dose-response curve of DPDPE or PL-017 was constructed at the start of each assay to establish tissue effects, allowing each tissue to be used as its own control.
(§3) Tissues not producing typical results were not used. Experimental compounds were added to the baths in 14–60 μL volumes. Succeeding doses of argonist were added cumulatively to the bath at 3 minute intervals to produce a concentration-response curve. The tissues were then washed extensively with fresh buffer until the original contraction height was re-established. […] Antagonist effects to DPDPE and PL-017 were assayed after incubation of the tissues with 1 μM concentration of the compound in the bath for 30 minutes. The tissues were then washed with fresh buffer for 30 min, and the agonist dose-response curve was repeated. Rightward shifts in the dose-response curves were calculated by dividing the antagonized dose-response curve IC50 value by the unantagoniced IC50 value. IC50 values represent the mean of two to four tissues. IC50 estimates and their associated standard errors were determined by using a computerized nonlinear least-squares method.

[11] = test system: guinea pig ileum longitudinal muscle myenteric plexus; assay: Agonist activity in GPI smooth muscle preparation, inhibition of contraction; format: cell-based; conditions: Cavia porcellus; read-out: agonist activity GPI IC50 (nM) or % max resp
Protocol: as §2, §3

mouse vas deferens [12] = assay: Agonist activity in MVD smooth muscle preparation, inhibition of contraction; format: cell-based; conditions: read-out: agonist activity MVD IC50 (nM) or % max resp
Protocol: as §2, §3

δ opioid receptor [13] = biological target: T1, δ opioid receptor; assay: Radioligand binding, delta sites, displacement of [3H]DADLE in rat brain membranes; parameters: Rat membranes were prepared each day using a partially thawed frozen rat brain; from tissue; host or cells: rat brain membranes; conditions: for Selectivity Ratio κ1δ / Selectivity Ratio μ/δ: thienomorphinans, ratio of Ki values
Protocol: as §1

[14] = biological target: T2, δ opioid receptor (DPDPE) in MVD; assay: Antagonist activity against DPDPE in electrically stimulated mouse vas deferens (MVD); format: cell-based; conditions: for antagonist activity DPDPE (δ) MVD IC50 ratio: 1 μM compound, 30 min incubation, IC50 of DPDPE with antagonist divided by control IC50; for Ke selectivity ratio μδ: Ke GPI (μ) over Ke MVD (δ)
Protocol: as §2, §3

T2 sequence (P32300 whole entry): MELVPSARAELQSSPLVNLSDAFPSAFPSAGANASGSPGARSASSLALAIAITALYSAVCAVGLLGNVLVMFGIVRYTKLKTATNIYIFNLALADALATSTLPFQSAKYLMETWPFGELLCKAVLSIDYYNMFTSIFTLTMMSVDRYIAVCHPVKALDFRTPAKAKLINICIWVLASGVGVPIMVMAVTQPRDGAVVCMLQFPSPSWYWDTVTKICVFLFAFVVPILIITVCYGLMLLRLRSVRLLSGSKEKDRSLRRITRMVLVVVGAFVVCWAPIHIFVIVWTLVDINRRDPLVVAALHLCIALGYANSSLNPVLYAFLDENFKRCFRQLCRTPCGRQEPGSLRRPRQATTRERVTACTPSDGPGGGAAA
T4 sequence (P33535 whole entry): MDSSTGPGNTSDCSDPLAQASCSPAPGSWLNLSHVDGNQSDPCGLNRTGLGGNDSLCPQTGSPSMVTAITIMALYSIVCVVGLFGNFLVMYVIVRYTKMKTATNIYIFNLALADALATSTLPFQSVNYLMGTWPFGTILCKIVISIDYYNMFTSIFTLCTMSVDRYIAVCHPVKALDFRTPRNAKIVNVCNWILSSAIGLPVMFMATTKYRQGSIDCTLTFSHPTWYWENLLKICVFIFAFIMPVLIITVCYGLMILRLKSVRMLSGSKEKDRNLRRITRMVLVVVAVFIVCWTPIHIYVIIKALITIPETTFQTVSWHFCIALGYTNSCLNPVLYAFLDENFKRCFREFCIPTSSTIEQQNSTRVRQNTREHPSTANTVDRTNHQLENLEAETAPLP
T3 sequence (P41144 whole entry): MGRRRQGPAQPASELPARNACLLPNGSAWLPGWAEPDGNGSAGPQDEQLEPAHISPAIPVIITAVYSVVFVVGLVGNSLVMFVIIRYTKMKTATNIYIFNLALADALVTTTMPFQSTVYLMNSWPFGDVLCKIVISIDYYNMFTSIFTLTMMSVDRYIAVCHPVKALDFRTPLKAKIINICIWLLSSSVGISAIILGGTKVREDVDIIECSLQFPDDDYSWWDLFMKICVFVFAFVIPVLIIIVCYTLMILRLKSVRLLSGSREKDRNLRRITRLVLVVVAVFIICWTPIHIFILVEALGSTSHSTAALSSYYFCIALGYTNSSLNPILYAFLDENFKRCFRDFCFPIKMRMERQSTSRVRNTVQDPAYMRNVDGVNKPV
T1 sequence (P33533 whole entry): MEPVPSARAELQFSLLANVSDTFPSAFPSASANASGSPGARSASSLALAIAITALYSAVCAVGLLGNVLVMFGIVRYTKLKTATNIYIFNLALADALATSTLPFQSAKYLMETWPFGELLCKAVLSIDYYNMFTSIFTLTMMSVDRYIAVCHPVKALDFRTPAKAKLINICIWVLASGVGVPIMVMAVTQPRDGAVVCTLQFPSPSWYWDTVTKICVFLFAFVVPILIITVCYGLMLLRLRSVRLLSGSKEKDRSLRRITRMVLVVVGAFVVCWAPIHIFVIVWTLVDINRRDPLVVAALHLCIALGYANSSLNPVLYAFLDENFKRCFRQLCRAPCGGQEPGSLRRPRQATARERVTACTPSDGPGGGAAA

SMILES | Ki (μ opioid receptor [8]) | Ki (κ1 opioid receptor [9]) | antagonist activity PL017 (μ) GPI IC50 ratio [10] | antagonist activity PL017 (μ) GPI Ke [10] | inhibition at 1 µM [11] | inhibition at 1 µM (mouse vas deferens [12]) | Ki (δ opioid receptor [13]) | Selectivity Ratio κ1δ (δ opioid receptor [13]) | Selectivity Ratio μ/δ (δ opioid receptor [13]) | Kb [14] | antagonist activity DPDPE (δ) MVD IC50 ratio [14] | Ke selectivity ratio μδ [14] | other results
Oc1ccc2c3c1OC1c4ncccc4CC4(O)C(C2)N(CC2CC2)CCC314 (stereo not drawn) [Compound 7a] |  |  |  |  |  |  |  |  |  |  |  |  | agonist activity GPI IC50 (nM) or % max resp [1]: 0%; Selectivity Ratio κ1δ (δ opioid receptor [2]; ratio of Ki values): 11; Selectivity Ratio μ/δ (δ opioid receptor [2]; ratio of Ki values): 1.9; Ki (δ opioid receptor [2]; read-out: Ki (nM) ± SEM δ, [3H]DADLE, rat brain membranes): 0.78 ± 0.06 nM; Ke selectivity ratio μδ [3]: 4.4; antagonist activity DPDPE (δ) MVD IC50 ratio [3]: 27.9 ± 1.2; antagonist activity DPDPE (δ) MVD Ke [3]: 37 nM; Ki (κ1 opioid receptor [4]): 8.8 ± 0.69 nM; agonist activity MVD IC50 (nM) or % max resp (mouse vas deferens [5]): 0%; antagonist activity PL017 (μ) GPI IC50 ratio [6]: 7.08 ± 3.44; antagonist activity PL017 (μ) GPI Ke [6]: 164 nM; Ki (μ opioid receptor [7]): 1.5 ± 0.09 nM
NC(=O)c1c(N)sc2c1[C@@H]1Oc3c(O)ccc4c3[C@@]13CCN(CC1CC1)[C@H](C4)[C@]3(O)C2 [Compound 8e, 5′-Amino-4′-aminocarbonyl-17-(cyclopropylmethyl)-6,7-didehydro-3,14-dihydroxy-4,5α-epoxythieno[2′,3′:7,6]morphinan] | 0.021 ± 0.0013 µM | 0.002 ± 0.0002 µM | 47.8 ± 10.7 | 24 nM | 4% | 5% | 0.0037 ± 0.0002 µM | 0.5 | 5.7 | 0.01 µM | 118.6 ± 38.4 | 2.4 | 
Nc1sc2c(c1C(=O)c1ccccc1)[C@@H]1Oc3c(O)ccc4c3[C@@]13CCN(CC1CC1)[C@H](C4)[C@]3(O)C2 [Compound 8f, 5′-Amino-4′-benzoyl-17-(cyclopropylmethyl)-6,7-didehydro-3,14-dihydroxy-4,5α-epoxythieno[2′,3′:7,6]morphinan] | 0.05 ± 0.003 µM | 0.014 ± 0.0007 µM | 21.6 ± 7.7 | 62 nM | 25% | 15% | 0.014 ± 0.0007 µM | 1.0 | 3.6 | 0.046 µM | 24.4 ± 4.0 | 1.3 | 
